Results taken from patent US9096500B2, “Acyl sulfonamide compounds” (Pfizer Limited, priority 2010, dated 2015).
pIC50: −log10 of the molar value.

These compounds were tested against T1, Nav1.7 (or SCN9A) channel (Homo sapiens, UniProt Q15858) (assay: Nav1.7 (hSCN9A) electrophysiology assay, PatchXpress platform). Conditions: estimated IC50 from single point electrophysiology data, HEK cells stably expressing hSCN9A, held at V1/2 of inactivation, read-out: Nav1.7 EIC50.
T1 construct: expressed in transfected cells
T1 sequence (Q15858 whole entry): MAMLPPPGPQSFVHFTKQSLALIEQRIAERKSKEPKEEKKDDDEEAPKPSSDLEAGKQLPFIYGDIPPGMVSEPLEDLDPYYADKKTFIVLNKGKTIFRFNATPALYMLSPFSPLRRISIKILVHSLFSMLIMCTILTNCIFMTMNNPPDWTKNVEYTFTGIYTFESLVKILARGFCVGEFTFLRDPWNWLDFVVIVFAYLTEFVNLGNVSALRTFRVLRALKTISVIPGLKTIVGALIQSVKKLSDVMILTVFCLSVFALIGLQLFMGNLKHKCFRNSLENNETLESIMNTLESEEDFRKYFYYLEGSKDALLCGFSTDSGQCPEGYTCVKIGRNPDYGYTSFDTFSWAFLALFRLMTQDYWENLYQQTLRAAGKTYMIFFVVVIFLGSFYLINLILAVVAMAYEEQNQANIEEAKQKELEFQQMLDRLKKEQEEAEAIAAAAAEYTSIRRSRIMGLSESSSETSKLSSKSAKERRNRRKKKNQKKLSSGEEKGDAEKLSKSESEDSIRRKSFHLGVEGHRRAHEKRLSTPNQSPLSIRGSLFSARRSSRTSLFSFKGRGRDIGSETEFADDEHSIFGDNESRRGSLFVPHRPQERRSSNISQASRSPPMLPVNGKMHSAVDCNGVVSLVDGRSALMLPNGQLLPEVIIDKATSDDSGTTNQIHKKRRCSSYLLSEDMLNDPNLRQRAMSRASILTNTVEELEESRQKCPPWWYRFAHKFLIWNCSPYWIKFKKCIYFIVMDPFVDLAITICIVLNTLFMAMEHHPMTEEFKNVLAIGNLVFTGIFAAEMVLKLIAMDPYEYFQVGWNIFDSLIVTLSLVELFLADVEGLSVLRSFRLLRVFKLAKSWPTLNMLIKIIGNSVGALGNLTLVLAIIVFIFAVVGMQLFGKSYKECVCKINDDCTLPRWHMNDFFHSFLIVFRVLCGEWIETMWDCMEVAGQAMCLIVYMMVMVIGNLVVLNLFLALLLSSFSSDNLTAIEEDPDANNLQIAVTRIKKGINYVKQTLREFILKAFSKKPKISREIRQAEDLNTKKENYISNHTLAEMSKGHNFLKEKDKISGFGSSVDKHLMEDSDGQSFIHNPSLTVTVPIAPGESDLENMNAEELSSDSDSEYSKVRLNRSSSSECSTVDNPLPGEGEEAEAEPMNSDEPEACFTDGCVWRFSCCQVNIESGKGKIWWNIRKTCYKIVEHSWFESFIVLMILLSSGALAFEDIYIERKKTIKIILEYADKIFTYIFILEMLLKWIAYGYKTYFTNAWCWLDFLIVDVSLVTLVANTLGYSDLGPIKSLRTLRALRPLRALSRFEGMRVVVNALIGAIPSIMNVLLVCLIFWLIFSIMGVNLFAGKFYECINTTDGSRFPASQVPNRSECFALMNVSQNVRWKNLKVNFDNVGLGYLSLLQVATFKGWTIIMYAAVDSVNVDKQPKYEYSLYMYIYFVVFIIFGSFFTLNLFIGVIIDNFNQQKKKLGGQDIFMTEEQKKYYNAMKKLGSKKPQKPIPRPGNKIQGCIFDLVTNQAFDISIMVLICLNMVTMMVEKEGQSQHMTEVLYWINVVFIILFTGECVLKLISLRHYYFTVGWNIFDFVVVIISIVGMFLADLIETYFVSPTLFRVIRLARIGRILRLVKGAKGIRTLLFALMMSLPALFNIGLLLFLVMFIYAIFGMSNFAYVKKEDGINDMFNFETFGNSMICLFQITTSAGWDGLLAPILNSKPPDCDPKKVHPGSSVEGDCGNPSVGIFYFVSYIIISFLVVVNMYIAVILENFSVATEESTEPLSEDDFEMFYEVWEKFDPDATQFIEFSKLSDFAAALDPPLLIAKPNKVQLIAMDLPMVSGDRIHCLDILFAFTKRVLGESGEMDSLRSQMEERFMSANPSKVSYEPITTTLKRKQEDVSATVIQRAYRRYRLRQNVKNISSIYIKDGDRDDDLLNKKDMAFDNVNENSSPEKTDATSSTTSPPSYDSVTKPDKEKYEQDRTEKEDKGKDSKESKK
Type: cell-based
In short: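 HEK cells stably expressing hSCN9A were recorded by whole-cell voltage clamp, including on PatchXpress, at 22–24°C with extracellular solution at pH 7.4. A 20 msec step to 0 mV followed an 8 s conditioning prepulse to the empirically determined inactivation V1/2. Inhibition was taken from current amplitude before vs after compound.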
A pIC50 of 5.40 was found for `CS(=O)(=O)NC(=O)c1cc(F)c(COc2c(F)cccc2Cl)cc1F` [Example 149, 4-[(2-chloro-6-fluorophenoxy)methyl]-2,5-difluoro-N-(methylsulfonyl)benzamide] in this work.
A pIC50 of 6.30 was found for `COc1cc(C)cc(OCc2cc(F)c(C(=O)NS(C)(=O)=O)cc2F)c1` [Example 150, 2,5-difluoro-4-[(3-methoxy-5-methylphenoxy)methyl]-N-(methylsulfonyl)benzamide] in this work.
A pIC50 of 7.19 was found for `Cc1ccc(OCc2cc(F)c(C(=O)NS(C)(=O)=O)cc2F)cc1Cl` [Example 151, 4-[(3-chloro-4-methylphenoxy)methyl]-2,5-difluoro-N-(methylsulfonyl)benzamide] in this work.
A pIC50 of 4.92 was found for `CS(=O)(=O)NC(=O)c1cc(F)c(COc2ccc(F)cc2C#N)cc1F` [Example 153, 4-[(2-cyano-4-fluorophenoxy)methyl]-2,5-difluoro-N-(methylsulfonyl)benzamide] in this work.
A pIC50 of 4.96 was found for `CS(=O)(=O)NC(=O)c1cc(F)c(COc2cccc(C#N)c2)cc1F` [Example 154, 4-[(3-cyanophenoxy)methyl]-2,5-difluoro-N-(methylsulfonyl)benzamide] in this work.
A pIC50 of 5.49 was found for `COc1ccc(OCc2cc(F)c(C(=O)NS(C)(=O)=O)cc2F)c(F)c1F` [Example 155, 4-[(2,3-difluoro-4-methoxyphenoxy)methyl]-2,5-difluoro-N-(methylsulfonyl)benzamide] in this work.
A pIC50 of 5.64 was found for `COc1ccc2cccc(OCc3cc(F)c(C(=O)NS(C)(=O)=O)cc3F)c2c1` [Example 156, 2,5-difluoro-4-{[(7-methoxy-1-naphthyl)oxy]methyl}-N-(methylsulfonyl)benzamide] in this work.
A pIC50 of 5.68 was found for `COc1ccc(OCc2cc(F)c(C(=O)NS(C)(=O)=O)cc2F)c(Cl)c1` [Example 157, 4-[(2-chloro-4-methoxyphenoxy)methyl]-2,5-difluoro-N-(methylsulfonyl)benzamide] in this work.
A pIC50 of 5.82 was found for `CS(=O)(=O)NC(=O)c1cc(F)c(COc2ccc(F)cc2)cc1F` [Example 158, 2,5-difluoro-4-[(4-fluorophenoxy)methyl]-N-(methylsulfonyl)benzamide] in this work.
A pIC50 of 6.89 was found for `Cc1cc(OCc2cc(F)c(C(=O)NS(C)(=O)=O)cc2F)ccc1Cl` [Example 159, 4-[(4-chloro-3-methylphenoxy)methyl]-2,5-difluoro-N-(methylsulfonyl)benzamide] in this work.
A pIC50 of 6.12 was found for `COc1ccc(OCc2cc(F)c(C(=O)NS(C)(=O)=O)cc2F)c2ccccc12` [Example 160, 2,5-difluoro-4-{[(4-methoxy-1-naphthyl)oxy]methyl}-N-(methylsulfonyl)benzamide] in this work.
A pIC50 of 6.14 was found for `Cc1cc(OCc2cc(F)c(C(=O)NS(C)(=O)=O)cc2F)cc(C)c1C#N` [Example 162, 4-[(4-cyano-3,5-dimethylphenoxy)methyl]-2,5-difluoro-N-(methylsulfonyl)benzamide] in this work.
A pIC50 of under 6.00 was found for `CS(=O)(=O)NC(=O)c1cc(F)c(COc2ccc(F)c(Cl)c2C#N)cc1F` [Example 163, 4-[(3-chloro-2-cyano-4-fluorophenoxy)methyl]-2,5-difluoro-N-(methylsulfonyl)benzamide] in this work.
A pIC50 of under 5.52 was found for `COc1ccc(OCc2cc(F)c(C(=O)NS(C)(=O)=O)cc2F)cc1` [Example 164, 2,5-difluoro-4-[(4-methoxyphenoxy)methyl]-N-(methylsulfonyl)benzamide] in this work.
A pIC50 of 6.13 was found for `CS(=O)(=O)NC(=O)c1cc(F)c(COc2cccc3ccccc23)cc1F` [Example 165, 2,5-difluoro-N-(methylsulfonyl)-4-[(1-naphthyloxy)methyl]benzamide] in this work.
A pIC50 of 5.89 was found for `Cc1nc(-c2cccc(OCc3cc(F)c(C(=O)NS(C)(=O)=O)cc3F)c2)no1` [Example 166, 2,5-difluoro-4-{[3-(5-methyl-1,2,4-oxadiazol-3-yl)phenoxy]methyl}-N-(methylsulfonyl)benzamide] in this work.
A pIC50 of 5.59 was found for `Cc1c(OCc2cc(F)c(C(=O)NS(C)(=O)=O)cc2F)ccc(F)c1F` [Example 167, 4-[(3,4-difluoro-2-methylphenoxy)methyl]-2,5-difluoro-N-(methylsulfonyl)benzamide] in this work.
A pIC50 of 5.51 was found for `CS(=O)(=O)NC(=O)c1cc(F)c(COc2cccc(N3CCCCC3)c2)cc1F` [Example 168, 2,5-difluoro-N-(methylsulfonyl)-4-[(3-piperidin-1-ylphenoxy)methyl]benzamide] in this work.
A pIC50 of under 5.52 was found for `COc1ccccc1COc1ccc(C(=O)NS(C)(=O)=O)cc1` [Example 169, 4-[(2-methoxybenzyl)oxy]-N-(methylsulfonyl)benzamide] in this work.
A pIC50 of under 5.52 was found for `CS(=O)(=O)NC(=O)c1ccc(OCc2cccc(F)c2F)cc1` [Example 170, 4-[(2,3-difluorobenzyl)oxy]-N-(methylsulfonyl)benzamide] in this work.
A pIC50 of 5.54 was found for `CS(=O)(=O)NC(=O)c1ccc(OCc2ccc(F)cc2Cl)cc1` [Example 171, 4-[(2-chloro-4-fluorobenzyl)oxy]-N-(methylsulfonyl)benzamide] in this work.
A pIC50 of under 5.52 was found for `CS(=O)(=O)NC(=O)c1ccc(OCc2ccc(C#N)cc2)cc1` [Example 172, 4-[(4-cyanobenzyl)oxy]-N-(methylsulfonyl)benzamide] in this work.
A pIC50 of 6.60 was found for `CS(=O)(=O)NC(=O)c1ccc(OCc2cc(Cl)cc(Cl)c2)cc1` [Example 173, 4-[(3,5-dichlorobenzyl)oxy]-N-(methylsulfonyl)benzamide] in this work.
A pIC50 of 5.89 was found for `CS(=O)(=O)NC(=O)c1ccc(OCC2CCCCC2)cc1` [Example 174, 4-(cyclohexylmethoxy)-N-(methylsulfonyl)benzamide] in this work.
A pIC50 of 5.68 was found for `CS(=O)(=O)NC(=O)c1ccc(OCc2cc(Cl)ccc2Cl)cc1` [Example 175, 4-[(2,5-dichlorobenzyl)oxy]-N-(methylsulfonyl)benzamide] in this work.
A pIC50 of under 6.00 was found for `CS(=O)(=O)NC(=O)c1ccc(OCc2ccc(F)cc2)cc1` [Example 176, 4-[(4-fluorobenzyl)oxy]-N-(methylsulfonyl)benzamide] in this work.
A pIC50 of 5.68 was found for `CS(=O)(=O)NC(=O)c1ccc(OCc2ccc(F)c(F)c2)cc1` [Example 177, 4-[(3,4-difluorobenzyl)oxy]-N-(methylsulfonyl)benzamide] in this work.
A pIC50 of 6.09 was found for `CS(=O)(=O)NC(=O)c1ccc(OCc2ccc(Cl)c(F)c2)cc1` [Example 178, 4-[(4-chloro-3-fluorobenzyl)oxy]-N-(methylsulfonyl)benzamide] in this work.
A pIC50 of under 6.00 was found for `CS(=O)(=O)NC(=O)c1ccc(OCc2cccc(C(F)(F)F)c2)cc1` [Example 179, N-(methylsulfonyl)-4-{[3-(trifluoromethyl)benzyl]oxy}benzamide] in this work.
A pIC50 of under 5.52 was found for `CS(=O)(=O)NC(=O)c1ccc(OCc2ccccc2F)cc1` [Example 180, 4-[(2-fluorobenzyl)oxy]-N-(methylsulfonyl)benzamide] in this work.
A pIC50 of 6.24 was found for `CS(=O)(=O)NC(=O)c1ccc(OCc2ccc(OC(F)(F)F)cc2)cc1` [Example 181, N-(methylsulfonyl)-4-{[4-(trifluoromethoxy)benzyl]oxy}benzamide] in this work.
A pIC50 of under 6.00 was found for `CS(=O)(=O)NC(=O)c1ccc(OCc2c(F)cccc2Cl)cc1` [Example 182, 4-[(2-chloro-6-fluorobenzyl)oxy]-N-(methylsulfonyl)benzamide] in this work.
A pIC50 of 5.37 was found for `CS(=O)(=O)NC(=O)c1ccc(OCc2ccccc2C(F)(F)F)cc1` [Example 183, N-(methylsulfonyl)-4-{[2-(trifluoromethyl)benzyl]oxy}benzamide] in this work.
A pIC50 of 5.59 was found for `CS(=O)(=O)NC(=O)c1ccc(OCc2c(Cl)cccc2Cl)cc1` [Example 184, 4-[(2,6-dichlorobenzyl)oxy]-N-(methylsulfonyl)benzamide] in this work.
A pIC50 of under 6.00 was found for `COc1cc(COc2ccc(C(=O)NS(C)(=O)=O)cc2)ccc1F` [Example 185, 4-[(4-fluoro-3-methoxybenzyl)oxy]-N-(methylsulfonyl)benzamide] in this work.
A pIC50 of 5.14 was found for `CS(=O)(=O)NC(=O)c1ccc(OCc2ccccc2Cl)cc1` [Example 186, 4-[(2-chlorobenzyl)oxy]-N-(methylsulfonyl)benzamide] in this work.
A pIC50 of 5.38 was found for `CS(=O)(=O)NC(=O)c1ccc(OCc2cc(F)cc(F)c2)cc1` [Example 187, 4-[(3,5-difluorobenzyl)oxy]-N-(methylsulfonyl)benzamide] in this work.
A pIC50 of 5.60 was found for `COc1ccc(F)c(COc2ccc(C(=O)NS(C)(=O)=O)cc2)c1` [Example 188, 4-[(2-fluoro-5-methoxybenzyl)oxy]-N-(methylsulfonyl)benzamide] in this work.
A pIC50 of 5.82 was found for `CS(=O)(=O)NC(=O)c1ccc(OCc2cccc(Cl)c2Cl)cc1` [Example 189, 4-[(2,3-dichlorobenzyl)oxy]-N-(methylsulfonyl)benzamide] in this work.
A pIC50 of 6.21 was found for `CS(=O)(=O)NC(=O)c1ccc(OCc2ccc(Cl)cc2Cl)cc1` [Example 190, 4-[(2,4-dichlorobenzyl)oxy]-N-(methylsulfonyl)benzamide] in this work.
A pIC50 of 5.12 was found for `CS(=O)(=O)NC(=O)c1ccc(OCC2CCCC2)cc1` [Example 191, 4-(cyclopentylmethoxy)-N-(methylsulfonyl)benzamide] in this work.
A pIC50 of 5.51 was found for `CS(=O)(=O)NC(=O)c1cc(F)c(OCc2cccc(C(F)(F)F)c2)cc1F` [Example 192, 2,5-difluoro-N-(methylsulfonyl)-4-{[3-(trifluoromethyl)benzyl]oxy}benzamide] in this work.
A pIC50 of 5.33 was found for `CS(=O)(=O)NC(=O)c1cc(F)c(OCc2ccc(C(F)(F)F)cc2)cc1F` [Example 193, 2,5-difluoro-N-(methylsulfonyl)-4-{[4-(trifluoromethyl)benzyl]oxy}benzamide] in this work.
A pIC50 of 5.77 was found for `CS(=O)(=O)NC(=O)c1cc(F)c(OCc2cccc3ccccc23)cc1F` [Example 194, 2,5-difluoro-N-(methylsulfonyl)-4-(1-naphthylmethoxy)benzamide] in this work.
A pIC50 of under 5.52 was found for `CS(=O)(=O)NC(=O)c1cc(F)c(OCc2cccc(F)c2)cc1F` [Example 195, 2,5-difluoro-4-[(3-fluorobenzyl)oxy]-N-(methylsulfonyl)benzamide] in this work.
A pIC50 of under 6.00 was found for `Cc1ccc(COc2cc(F)c(C(=O)NS(C)(=O)=O)cc2F)cc1` [Example 196, 2,5-difluoro-4-[(4-methylbenzyl)oxy]-N-(methylsulfonyl)benzamide] in this work.
